Experimental data published in ChEMBL document CHEMBL3044707, “Synthesis of some new glutamine linked 2,3-disubstituted quinazolinone derivatives as potent antimicrobial and antioxidant agents” (Med Chem Res, 2013).
In brackets after ≈: the same amount, converted by molar mass.

Key:
Format in all cases: functional
Aspergillus flavus [1] = assay: Antimicrobial activity against Aspergillus flavus NCIM 524 assessed as diameter of growth inhibition zone at 100 ug/ml after 48 hr by paper disk diffusion method; details: NCIM 524, 48 h, read-out: DIZ
Bacillus subtilis [2] = assay: Antimicrobial activity against Bacillus subtilis NCIM 2999 assessed as diameter of growth inhibition zone at 100 ug/ml after 24 hr by paper disk diffusion method; details: NCIM 2999, 24 h, read-out: DIZ
Escherichia coli [3] = assay: Antimicrobial activity against Escherichia coli NCIM 2574 assessed as diameter of growth inhibition zone at 100 ug/ml after 24 hr by paper disk diffusion method; details: NCIM 2574, 24 h, read-out: DIZ
Pseudomonas aeruginosa [4] = assay: Antimicrobial activity against Pseudomonas aeruginosa NCIM 5029 assessed as diameter of growth inhibition zone at 100 ug/ml after 24 hr by paper disk diffusion method; details: NCIM 5029, 24 h, read-out: DIZ
Staphylococcus aureus [5] = assay: Antimicrobial activity against Staphylococcus aureus NCIM 5021 assessed as diameter of growth inhibition zone at 100 ug/ml after 24 hr by paper disk diffusion method; details: NCIM 5021, 24 h, read-out: DIZ
Candida albicans [6] = assay: Antimicrobial activity against Candida albicans NCIM 3102 assessed as diameter of growth inhibition zone at 100 ug/ml after 48 hr by paper disk diffusion method; details: NCIM 3102, 48 h, read-out: DIZ
Bacillus subtilis [7] = assay: Antimicrobial activity against Bacillus subtilis NCIM 2999 assessed as growth inhibition by agar streak dilution method
Escherichia coli [8] = assay: Antimicrobial activity against Escherichia coli NCIM 2574 assessed as growth inhibition by agar streak dilution method
Pseudomonas aeruginosa [9] = assay: Antimicrobial activity against Pseudomonas aeruginosa NCIM 5029 assessed as growth inhibition by agar streak dilution method
Staphylococcus aureus [10] = assay: Antimicrobial activity against Staphylococcus aureus NCIM 5021 assessed as growth inhibition by agar streak dilution method
[11] = Antioxidant activity assessed as inhibition of NO radical production from sodium nitroprusside after 150 min by Griess reagent analysis
[12] = Antioxidant activity assessed as inhibition of Fe3+/ascorbic acid-induced hydroxyl radical production-mediated 2-deoxyribose degradation after 1 hr
[13] = tested on: Radical scavenging activity; assay: Antioxidant activity assessed as DPPH radical scavenging activity by visible spectrophotometric analysis
Aspergillus flavus [14] = assay: Antimicrobial activity against Aspergillus flavus NCIM 524 assessed as growth inhibition by agar streak dilution method
Candida albicans [15] = assay: Antimicrobial activity against Candida albicans NCIM 3102 assessed as growth inhibition by agar streak dilution method
[16] = Antioxidant activity assessed as inhibition of xanthine-xanthine oxidase generated superoxide anion radical-mediated NBT reduction by spectrophotometric analysis
Bacillus subtilis [17] = assay: Antimicrobial activity against Bacillus subtilis NCIM 2999 assessed as diameter of growth inhibition zone at 10 ug/disk after 24 hr by paper disk diffusion method; details: NCIM 2999, 24 h, read-out: DIZ
Escherichia coli [18] = assay: Antimicrobial activity against Escherichia coli NCIM 2574 assessed as diameter of growth inhibition zone at 10 ug/disk after 24 hr by paper disk diffusion method; details: NCIM 2574, 24 h, read-out: DIZ
Pseudomonas aeruginosa [19] = assay: Antimicrobial activity against Pseudomonas aeruginosa NCIM 5029 assessed as diameter of growth inhibition zone at 10 ug/disk after 24 hr by paper disk diffusion method; details: NCIM 5029, 24 h, read-out: DIZ
Staphylococcus aureus [20] = assay: Antimicrobial activity against Staphylococcus aureus NCIM 5021 assessed as diameter of growth inhibition zone at 10 ug/disk after 24 hr by paper disk diffusion method; details: NCIM 5021, 24 h, read-out: DIZ

Cc1ccccc1-c1nc2ccccc2c(=O)n1C(=O)CCC(N)C(=O)O (centres undefined)
zone of inhibition at 100 µg/mL (Aspergillus flavus [1]): 15 mm | zone of inhibition at 100 µg/mL (Bacillus subtilis [2]): 12 mm | zone of inhibition at 100 µg/mL (Escherichia coli [3]): 10 mm | zone of inhibition at 100 µg/mL (Pseudomonas aeruginosa [4]): 11 mm | zone of inhibition at 100 µg/mL (Staphylococcus aureus [5]): 11 mm | zone of inhibition at 100 µg/mL (Candida albicans [6]): 12 mm | MIC (Bacillus subtilis [7]): 30 µg/mL (≈ 82.1 µM) | MIC (Escherichia coli [8]): 50 µg/mL (≈ 137 µM) | MIC (Pseudomonas aeruginosa [9]): 30 µg/mL (≈ 82.1 µM) | MIC (Staphylococcus aureus [10]): 50 µg/mL (≈ 137 µM) | IC50 [11]: 29.1 µg/mL (≈ 79.6 µM) | IC50 [12]: 30.4 µg/mL (≈ 83.2 µM) | IC50 [13]: 24.9 µg/mL (≈ 68.1 µM) | MIC (Aspergillus flavus [14]): 25 µg/mL (≈ 68.4 µM) | MIC (Candida albicans [15]): 25 µg/mL (≈ 68.4 µM)

NC(CCC(=O)n1c(-c2ccc([N+](=O)[O-])cc2)nc2ccccc2c1=O)C(=O)O (centres undefined)
zone of inhibition at 100 µg/mL (Aspergillus flavus [1]): 13.6 mm | zone of inhibition at 100 µg/mL (Bacillus subtilis [2]): 16 mm | zone of inhibition at 100 µg/mL (Escherichia coli [3]): 9 mm | zone of inhibition at 100 µg/mL (Pseudomonas aeruginosa [4]): 11 mm | zone of inhibition at 100 µg/mL (Staphylococcus aureus [5]): 14 mm | zone of inhibition at 100 µg/mL (Candida albicans [6]): 14.1 mm | MIC (Bacillus subtilis [7]): 12.5 µg/mL (≈ 31.5 µM) | MIC (Escherichia coli [8]): 25 µg/mL (≈ 63.1 µM) | MIC (Pseudomonas aeruginosa [9]): 25 µg/mL (≈ 63.1 µM) | MIC (Staphylococcus aureus [10]): 9.6 µg/mL (≈ 24.2 µM) | IC50 [11]: 49 µg/mL (≈ 124 µM) | IC50 [12]: 39 µg/mL (≈ 98.4 µM) | IC50 [13]: 36.4 µg/mL (≈ 91.8 µM) | MIC (Aspergillus flavus [14]): 12.5 µg/mL (≈ 31.5 µM) | MIC (Candida albicans [15]): 10 µg/mL (≈ 25.2 µM)

NC(CCC(=O)n1c(-c2ccc(F)c(F)c2F)nc2ccccc2c1=O)C(=O)O (centres undefined)
zone of inhibition at 100 µg/mL (Aspergillus flavus [1]): 14.4 mm | zone of inhibition at 100 µg/mL (Bacillus subtilis [2]): 13.5 mm | zone of inhibition at 100 µg/mL (Escherichia coli [3]): 12.7 mm | zone of inhibition at 100 µg/mL (Pseudomonas aeruginosa [4]): 14.8 mm | zone of inhibition at 100 µg/mL (Staphylococcus aureus [5]): 13.2 mm | zone of inhibition at 100 µg/mL (Candida albicans [6]): 13.6 mm | MIC (Bacillus subtilis [7]): 8 µg/mL (≈ 19.7 µM) | MIC (Escherichia coli [8]): 12 µg/mL (≈ 29.6 µM) | MIC (Pseudomonas aeruginosa [9]): 10 µg/mL (≈ 24.7 µM) | MIC (Staphylococcus aureus [10]): 8 µg/mL (≈ 19.7 µM) | IC50 [16]: 48.2 µg/mL (≈ 119 µM) | IC50 [12]: 55.1 µg/mL (≈ 136 µM) | IC50 [13]: 29.7 µg/mL (≈ 73.3 µM) | MIC (Aspergillus flavus [14]): 15 µg/mL (≈ 37 µM) | MIC (Candida albicans [15]): 10 µg/mL (≈ 24.7 µM)

NC(CCC(=O)n1c(-c2cc(F)ccc2F)nc2ccccc2c1=O)C(=O)O (centres undefined)
zone of inhibition at 100 µg/mL (Aspergillus flavus [1]): 10.9 mm | zone of inhibition at 100 µg/mL (Bacillus subtilis [2]): 12 mm | zone of inhibition at 100 µg/mL (Escherichia coli [3]): 11 mm | zone of inhibition at 100 µg/mL (Pseudomonas aeruginosa [4]): 17 mm | zone of inhibition at 100 µg/mL (Staphylococcus aureus [5]): 14 mm | zone of inhibition at 100 µg/mL (Candida albicans [6]): 11.4 mm | MIC (Bacillus subtilis [7]): 12.5 µg/mL (≈ 32.3 µM) | MIC (Escherichia coli [8]): 30 µg/mL (≈ 77.5 µM) | MIC (Pseudomonas aeruginosa [9]): 35 µg/mL (≈ 90.4 µM) | MIC (Staphylococcus aureus [10]): 12.5 µg/mL (≈ 32.3 µM) | IC50 [16]: 50.8 µg/mL (≈ 131 µM) | IC50 [12]: 41.8 µg/mL (≈ 108 µM) | IC50 [13]: 34.9 µg/mL (≈ 90.1 µM) | MIC (Aspergillus flavus [14]): 15 µg/mL (≈ 38.7 µM) | MIC (Candida albicans [15]): 10 µg/mL (≈ 25.8 µM)

NC(CCC(=O)n1c(OCc2ccccc2Cl)nc2ccccc2c1=O)C(=O)O (centres undefined)
zone of inhibition at 100 µg/mL (Aspergillus flavus [1]): 11 mm | zone of inhibition at 100 µg/mL (Bacillus subtilis [2]): 14 mm | zone of inhibition at 100 µg/mL (Escherichia coli [3]): 10 mm | zone of inhibition at 100 µg/mL (Pseudomonas aeruginosa [4]): 13 mm | zone of inhibition at 100 µg/mL (Staphylococcus aureus [5]): 12 mm | zone of inhibition at 100 µg/mL (Candida albicans [6]): 13.7 mm | MIC (Bacillus subtilis [7]): 50 µg/mL (≈ 120 µM) | MIC (Escherichia coli [8]): 50 µg/mL (≈ 120 µM) | MIC (Pseudomonas aeruginosa [9]): 50 µg/mL (≈ 120 µM) | MIC (Staphylococcus aureus [10]): 30 µg/mL (≈ 72.1 µM) | IC50 [16]: 31.4 µg/mL (≈ 75.5 µM) | IC50 [11]: 38.7 µg/mL (≈ 93.1 µM) | IC50 [12]: 27.7 µg/mL (≈ 66.6 µM) | IC50 [13]: 26.1 µg/mL (≈ 62.8 µM) | MIC (Aspergillus flavus [14]): 40 µg/mL (≈ 96.2 µM) | MIC (Candida albicans [15]): 25 µg/mL (≈ 60.1 µM)

NC(CCC(=O)n1c(-c2ccccc2)nc2ccccc2c1=O)C(=O)O (centres undefined)
zone of inhibition at 100 µg/mL (Aspergillus flavus [1]): 10 mm | zone of inhibition at 100 µg/mL (Bacillus subtilis [2]): 11 mm | zone of inhibition at 100 µg/mL (Escherichia coli [3]): 15 mm | zone of inhibition at 100 µg/mL (Pseudomonas aeruginosa [4]): 12 mm | zone of inhibition at 100 µg/mL (Staphylococcus aureus [5]): 11 mm | zone of inhibition at 100 µg/mL (Candida albicans [6]): 14 mm | MIC (Bacillus subtilis [7]): 50 µg/mL (≈ 142 µM) | MIC (Escherichia coli [8]): 50 µg/mL (≈ 142 µM) | MIC (Pseudomonas aeruginosa [9]): 75 µg/mL (≈ 213 µM) | MIC (Staphylococcus aureus [10]): 45 µg/mL (≈ 128 µM) | IC50 [11]: 36 µg/mL (≈ 102 µM) | IC50 [12]: 31.2 µg/mL (≈ 88.8 µM) | IC50 [13]: 29.7 µg/mL (≈ 84.5 µM) | MIC (Aspergillus flavus [14]): 25 µg/mL (≈ 71.2 µM) | MIC (Candida albicans [15]): 30 µg/mL (≈ 85.4 µM)

CN[C@@H]1[C@H](O[C@H]2[C@H](O[C@H]3[C@H](O)[C@@H](O)[C@H](N=C(N)N)[C@@H](O)[C@@H]3N=C(N)N)O[C@@H](C)[C@]2(O)C=O)O[C@@H](CO)[C@H](O)[C@H]1O [STREPTOMYCIN]
zone of inhibition at 10 µg/disc (Bacillus subtilis [17]): 13.4 mm | zone of inhibition at 10 µg/disc (Escherichia coli [18]): 16.5 mm | zone of inhibition at 10 µg/disc (Pseudomonas aeruginosa [19]): 14 mm | zone of inhibition at 10 µg/disc (Staphylococcus aureus [20]): 14.1 mm | MIC (Bacillus subtilis [7]): 5 µg/mL (≈ 8.6 µM) | MIC (Escherichia coli [8]): 5 µg/mL (≈ 8.6 µM) | MIC (Pseudomonas aeruginosa [9]): 5 µg/mL (≈ 8.6 µM) | MIC (Staphylococcus aureus [10]): 5 µg/mL (≈ 8.6 µM)

NC(CCC(=O)n1c(-c2cc(F)cc(F)c2)nc2ccccc2c1=O)C(=O)O (centres undefined)
zone of inhibition at 100 µg/mL (Aspergillus flavus [1]): 10.4 mm | zone of inhibition at 100 µg/mL (Bacillus subtilis [2]): 16 mm | zone of inhibition at 100 µg/mL (Escherichia coli [3]): 12 mm | zone of inhibition at 100 µg/mL (Pseudomonas aeruginosa [4]): 14 mm | zone of inhibition at 100 µg/mL (Staphylococcus aureus [5]): 11 mm | zone of inhibition at 100 µg/mL (Candida albicans [6]): 11 mm | MIC (Bacillus subtilis [7]): 15 µg/mL (≈ 38.7 µM) | MIC (Escherichia coli [8]): 50 µg/mL (≈ 129 µM) | MIC (Pseudomonas aeruginosa [9]): 25 µg/mL (≈ 64.5 µM) | MIC (Staphylococcus aureus [10]): 13 µg/mL (≈ 33.6 µM) | IC50 [16]: 45.7 µg/mL (≈ 118 µM) | IC50 [12]: 38.1 µg/mL (≈ 98.4 µM) | IC50 [13]: 27.4 µg/mL (≈ 70.7 µM) | MIC (Aspergillus flavus [14]): 25 µg/mL (≈ 64.5 µM) | MIC (Candida albicans [15]): 15 µg/mL (≈ 38.7 µM)
